Measurements from patent publication US5318776A, “Composition for preventing graying of the hair” (priority 1988, dated 1994).

What was measured:
[1] = Sensory test: degree of change in smell after standing at 30° C. for 3 months;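 on Stability S.E. (Sensory Evaluation): double circle means no smell deterioration on a four-grade scale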; format: physicochemical; settings: for Stability S.E. (Sensory Evaluation): Table V, 0.05% in hair tonic, 30° C., 3 months
Procedure: (§1) One month thereafter, regenerated hair was collected from a constant area and the rate (%) of generated grayed hair to all the number of hair collected was estimated. In addition, the aforementioned hair tonic type preparations were allowed to stand at 30° C. for 3 months and the residual amount of the test compounds therein was examined by liquid chromatography as well as the degree of change in smell was also evaluated by means of sensory test.
as §1, with “compositions” for “hair tonic type preparations”, “by” for “by means of”, “test. […] In addition, the abbreviation P means the averaged added molar number of ethylene oxide residues.” for “test.”

[2] = tested on: grayed hair; test: Half-Head technique application to scalp of men having grayed hair; format: in vivo, men (40 to 60 years old)
Procedure: Then, the effects of preventing graying of the hair and restoring grayed hair to its natural color were evaluated by comparing the conditions of the portions observed before and after the application of Samples and the results obtained were listed in the following Table VIII. […]
Then, the effectiveness of the hair cream of the invention and that of Comp.

[3] = tested on: grayed hair (melanocytes); test: Inhibition of generation of grayed hair in stressed black mice; format: in vivo; settings: Table V, 0.05% test compound in hair tonic, 0.1 ml twice a day, 1 month, control 17.1
Procedure: It is known that stress is one of the causes of graying of the hair. […] Moreover, the stability of the composition with time was also estimated.
as §1
as §1, with “compositions” for “hair tonic type preparations”, “by” for “by means of”, “test. […] In addition, the abbreviation P means the averaged added molar number of ethylene oxide residues.” for “test.”

[4] = Stability: residual amount of test compound after standing at 30° C. for 3 months, liquid chromatography; format: physicochemical; settings: for remaining at 2190 h: Table V, 0.05% in hair tonic, 30° C., 3 months, read-out: Stability Residue(%)
Procedure: as §1
as §1, with “compositions” for “hair tonic type preparations”, “by” for “by means of”, “test. […] In addition, the abbreviation P means the averaged added molar number of ethylene oxide residues.” for “test.”

[5] = Example 7, hair cream as in Example 5

Row | Stability S.E. (Sensory Evaluation) [1] | stability (in words) ([4]; Example 7, hair cream) | remaining at 2190 h ([4]; hair tonic) [%] | Compound | quality deterioration such as giving out of bad smell ([1]; Example 7, hair cream) | effect of preventing graying of the hair and restoring grayed hair to its natural color (in words) [2, 5] | Rate of Grayed Hair (%) [3] [%] | quality deterioration such as giving out of bad smell ([1]; Example 6, hair tonic) | effect of preventing graying of the hair and restoring grayed hair to its natural color (in words) ([2]; Example 6, hair tonic as in Example 3) | stability (in words) ([4]; Example 6, hair tonic)
1 | .circleincircle. | stable | 99.9 | CCCCSc1nc2c(N)ncnc2n1[C@@H]1O[C@@H]2COP(=O)(O)O[C@H]2[C@H]1O [8-butylthio cAMP-Na] | did not cause quality deterioration such as giving out of bad smell | the same effect of preventing graying of the hair and restoring grayed hair to its natural color as in Example 5 | 6.5 |  |  | 
2 | .circleincircle. | stable | 99.5 | CCCCNc1nc2c(N)ncnc2n1[C@@H]1O[C@@H]2COP(=O)(O)O[C@H]2[C@H]1O [8-butylamino cAMP-Na] | did not cause quality deterioration such as giving out of bad smell | the same effect of preventing graying of the hair and restoring grayed hair to its natural color as in Example 5 | 7.1 |  |  | 

Row | Compound | Stability S.E. (Sensory Evaluation) [1] | stability (in words) ([4]; Example 7, hair cream) | remaining at 2190 h ([4]; hair tonic) [%] | quality deterioration such as giving out of bad smell ([1]; Example 7, hair cream) | effect of preventing graying of the hair and restoring grayed hair to its natural color (in words) [2, 5] | Rate of Grayed Hair (%) [3] [%] | quality deterioration such as giving out of bad smell ([1]; Example 6, hair tonic) | effect of preventing graying of the hair and restoring grayed hair to its natural color (in words) ([2]; Example 6, hair tonic as in Example 3) | stability (in words) ([4]; Example 6, hair tonic)
3 | CCCCOc1nc2c(N)ncnc2n1[C@@H]1O[C@@H]2COP(=O)(O)O[C@H]2[C@H]1O [8-butoxy cAMP-Na] | .circleincircle. |  | 99.9 |  |  | 6.0 | did not cause quality deterioration such as giving out of bad smell | the same effect of preventing graying of the hair and restoring grayed hair to its natural color as in Example 3 | stable
